SMILES strings stand for the structures.

The target in the test is T1, Human recombinant MAO-B (Homo sapiens, UniProt P27338).
T1 construct: host or cells: insect cells
T1 sequence (P27338 1-520): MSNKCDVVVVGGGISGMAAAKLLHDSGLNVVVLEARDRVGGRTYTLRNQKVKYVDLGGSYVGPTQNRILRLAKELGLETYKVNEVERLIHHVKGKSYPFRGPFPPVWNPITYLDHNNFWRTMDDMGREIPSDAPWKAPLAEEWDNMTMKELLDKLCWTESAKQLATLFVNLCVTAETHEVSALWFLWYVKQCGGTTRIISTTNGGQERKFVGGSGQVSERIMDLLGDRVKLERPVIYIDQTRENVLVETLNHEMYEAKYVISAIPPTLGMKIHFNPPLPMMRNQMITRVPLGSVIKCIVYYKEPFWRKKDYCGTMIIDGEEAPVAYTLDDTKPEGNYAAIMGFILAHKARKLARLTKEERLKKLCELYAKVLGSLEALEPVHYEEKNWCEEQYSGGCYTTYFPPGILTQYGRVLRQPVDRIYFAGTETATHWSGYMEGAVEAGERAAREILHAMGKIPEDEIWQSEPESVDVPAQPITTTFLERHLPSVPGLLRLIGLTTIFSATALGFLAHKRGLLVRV
In words: MAO-B enzymatic assay (fluorometric, kynuramine). It counts as biochemical. To be noted: human recombinant MAO-B expressed in insect cells; kynuramine substrate; values given as bins; read-out: MAO-B (pEC50) (converted). The method, then:
The MAO enzymatic assay was performed according to the fluorometric method described by Matsumoto and colleagues (Matsumoto et al., Clin. Biochem. 1985, 18, 126-129) with the following modifications. Human recombinant MAO-A and MAO-B expressed in insect cells were used. For both assays, test compound and/or vehicle were preincubated with purified enzyme in phosphate buffer pH 7.4 for 15 minutes at 37° C. The reaction was initiated by addition of […] kynuramine. Following a 60 minute incubation period, the reaction was terminated by the addition of 6 N NaOH. The amount of 4-hydroxyquinoline that formed was determined by spectrofluorimetrically at 325 nm/465 nm.
Results were converted to percent inhibition, and the EC50 (M) for each reaction was determined using the XLfit program from IDBS (ID Business Solutions Ltd., 2 Occam Court, Surrey Research Park, Guildford, Surrey, GU2 7QB UK). The EC50 represents the concentration of a compound where 50% of its maximal effect is observed. The pEC50 is defined as the negative logarithm of the EC50; a higher pEC50 value therefore corresponds to higher potency in the assay.
Representative compounds of the invention were evaluated in the MAO-B enzymatic assay. Typically, the compounds of the invention show MAO-B inhibitory properties at a concentration of 0.1 to 10 μM, typically at 5-100%.
As depicted in the following Table, these inhibitory properties were mirrored by pEC50 values ranging from 5 (meaning 10^−5 M or 10 μM) to greater than 7 (meaning less than 10^−7 M or 0.1 μM).
With `CC(C)(F)c1cnc2cc(OCc3ccc(F)cc3)cnc2c1` [Example 75, 3-[(4-Fluorophenyl)methoxy]-7-(2-fluoropropan-2-yl)-1,5-naphthyridine], the EC50 was below 0.1 µM. Regarding `C[C@@H](O)c1cnc2cc(OCc3ccc(F)cc3)ccc2c1` [Example 44, (R)-1-(7-((4-Fluorobenzyl)oxy)quinolin-3-yl)ethanol], the EC50 was below 0.1 µM. With `NC(=O)CC1Cc2ccc(OCc3cccc(Cl)c3)cc2NC1=O` (stereo not shown) [Example 82, 2-(7-((3-Chlorobenzyl)oxy)-2-oxo-1,2,3,4-tetrahydroquinolin-3-yl)acetamide] the figure was below 0.1 µM; with `CCOC(=O)c1cnc2cc(OCc3cccc(C(F)(F)F)c3)ccc2c1` [Example 5, Ethyl 7-((3-(trifluoromethyl)benzyl)oxy)quinoline-3-carboxylate], below 0.1 µM; with `COC(=O)c1cnc2cc(OCc3cccc(Cl)c3)ccc2c1` [Example 26, Methyl 7-((3-chlorobenzyl)oxy)quinoline-3-carboxylate], below 0.1 µM. As to `NC(=O)Cc1cc2ccc(OCc3cccc(Cl)c3)cc2[nH]c1=O` [Example 83, 2-(7-((3-Chlorobenzyl)oxy)-2-oxo-1,2-dihydroquinolin-3-yl)acetamide], the EC50 was below 0.1 µM. With `NC(=O)Cc1cnc2cc(OCc3cccc(Cl)c3)ccc2c1` [Example 55, 2-(7-((3-Chlorobenzyl)oxy)quinolin-3-yl)acetamide] the figure was below 0.1 µM; with `CC(C)(O)c1cnc2cc(OCc3ccc(F)c(Cl)c3)cnc2c1` [Example 78, 2-{7-[(3-Chloro-4-fluorophenyl)methoxy]-1,5-naphthyridin-3-yl}propan-2-ol], below 0.1 µM; with `CCOC(=O)c1cnc2cc(OCc3cccc([N+](=O)[O-])c3)ccc2c1` [Example 18, Ethyl 7-((3-nitrobenzyl)oxy)quinoline-3-carboxylate], below 0.1 µM. Regarding `CC(C)(O)c1cnc2cc(OCc3cccc(Cl)c3)cnc2c1` [Example 79, 2-{7-[(3-Chlorophenyl)methoxy]-1,5-naphthyridin-3-yl}propan-2-ol], the EC50 is below 0.1 µM. With `OCCc1cnc2cc(OCc3cccc(Cl)c3)ccc2c1` [Example 56, 2-(7-((3-Chlorobenzyl)oxy)quinolin-3-yl)ethanol] the figure was below 0.1 µM; with `CCOC(=O)c1cnc2cc(OCc3cccc(F)c3)ccc2c1` [Example 4, Ethyl 7-[(3-fluorophenyl)methoxy]quinoline-3-carboxylate], below 0.1 µM; with `CCOC(=O)c1cnc2cc(OCc3ccc([N+](=O)[O-])cc3)ccc2c1` [Example 11, Ethyl 7-((4-nitrobenzyl)oxy)quinoline-3-carboxylate], 0.1 to 1 µM. With `CC(C)(O)c1cnc2cc(OCc3ccc(F)c(F)c3)cnc2c1` [Example 77, 2-{7-[(3,4-Difluorophenyl)methoxy]-1,5-naphthyridin-3-yl}propan-2-ol] the figure was below 0.1 µM; with `CCOC(=O)c1cc2ccc(OCc3ccc(F)c(Cl)c3)cc2nc1C` [Example 23, Ethyl 7-((3-chloro-4-fluorobenzyl)oxy)-2-methylquinoline-3-carboxylate], below 0.1 µM. The result for `NC(=O)c1cnc2cc(OCc3cccc(F)c3)cnc2c1` [Example 67, 7-[(3-Fluorophenyl)methoxy]-1,5-naphthyridine-3-carboxamide] reads below 0.1 µM.

In the case of `NC(=O)Cc1cnc2cc(OCc3ccc(F)cc3)ccc2c1` [Example 58, 2-(7-((4-fluorobenzyl)oxy)quinolin-3-yl)acetamide], the EC50 is below 0.1 µM. As to `NC(=O)Cc1cnc2cc(OCc3cccc(C(F)(F)F)n3)cnc2c1` [Example 81, 2-(7-((6-(Trifluoromethyl)pyridin-2-yl)methoxy)-1,5-naphthyridin-3-yl)acetamide], the EC50 is 0.1 to 1 µM. Turning to `CCOC(=O)c1cc2ccc(OCc3ccc(F)cc3)cc2nc1C` [Example 22, Ethyl 7-((4-fluorobenzyl)oxy)-2-methylquinoline-3-carboxylate], the EC50 was below 0.1 µM. The result for `CCOC(=O)C(C)(C)c1cnc2cc(OCc3cccc(Cl)c3)ccc2c1` [Example 59, Ethyl 2-(7-((3-chlorobenzyl)oxy)quinolin-3-yl)-2-methylpropanoate] reads 0.1 to 1 µM. For `CC(C)(O)Cc1cnc2cc(OCc3cccc(Cl)c3)ccc2c1` [Example 63, 1-(7-((3-Chlorobenzyl)oxy)quinolin-3-yl)-2-methylpropan-2-ol], the EC50 is 1 to 10 µM. For `CCOC(=O)c1cnc2cc(OCc3cccc(C)c3)ccc2c1` [Example 7, Ethyl 7-((3-methylbenzyl)oxy)quinoline-3-carboxylate], the EC50 was below 0.1 µM.
